US12187723B2 (BRISTOL-MYERS SQUIBB COMPANY, priority 2019, dated 2025)

Biological target: T1, human TLR7 (Homo sapiens, UniProt Q9NYK1)
T1 construct: host or cells: HEK-Blue cells
T1 sequence (Q9NYK1 27-1049): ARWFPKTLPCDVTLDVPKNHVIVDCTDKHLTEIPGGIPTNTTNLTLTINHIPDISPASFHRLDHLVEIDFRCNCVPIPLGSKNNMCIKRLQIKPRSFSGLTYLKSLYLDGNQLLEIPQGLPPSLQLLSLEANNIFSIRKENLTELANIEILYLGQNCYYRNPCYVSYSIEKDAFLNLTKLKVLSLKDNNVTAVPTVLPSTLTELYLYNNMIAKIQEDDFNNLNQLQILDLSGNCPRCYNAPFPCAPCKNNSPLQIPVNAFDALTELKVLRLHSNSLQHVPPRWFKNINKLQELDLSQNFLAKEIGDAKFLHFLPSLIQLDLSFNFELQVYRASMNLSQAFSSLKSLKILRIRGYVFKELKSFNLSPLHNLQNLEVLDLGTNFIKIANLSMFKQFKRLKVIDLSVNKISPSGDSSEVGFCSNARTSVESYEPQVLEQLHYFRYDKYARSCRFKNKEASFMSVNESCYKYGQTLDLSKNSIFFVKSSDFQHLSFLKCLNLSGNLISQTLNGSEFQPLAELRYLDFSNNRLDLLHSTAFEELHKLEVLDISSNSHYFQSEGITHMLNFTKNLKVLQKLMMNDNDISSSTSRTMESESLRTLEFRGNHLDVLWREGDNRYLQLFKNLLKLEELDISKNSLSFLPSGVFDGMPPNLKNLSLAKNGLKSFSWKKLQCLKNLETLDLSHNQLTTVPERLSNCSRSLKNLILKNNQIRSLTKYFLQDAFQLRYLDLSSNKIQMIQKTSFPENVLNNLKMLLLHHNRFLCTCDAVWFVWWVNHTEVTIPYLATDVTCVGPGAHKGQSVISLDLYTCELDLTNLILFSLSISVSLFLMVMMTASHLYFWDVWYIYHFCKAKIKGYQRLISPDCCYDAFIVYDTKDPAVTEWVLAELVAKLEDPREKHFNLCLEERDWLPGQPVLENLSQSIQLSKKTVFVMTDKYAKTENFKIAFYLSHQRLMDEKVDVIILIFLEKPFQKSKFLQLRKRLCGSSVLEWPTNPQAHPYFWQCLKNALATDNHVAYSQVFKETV
Assay: TLR7 inhibition reporter assay (HEK-Blue SEAP)
Type: cell-based
Conditions: HEK-Blue cells overexpressing human TLR7, gardiquimod 7.5 μM, 22 hour incubation
Summary of the method: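 Cells (15000/well for TLR7, 20,000 for TLR8) were treated with compounds over 0.05 nM-50 μM final. After 22 h at 37° C, 5% CO2, SEAP was measured with HEK-Blue Detection reagent; percent inhibition was taken as reduction of agonist-plus-DMSO signal relative to a known inhibitor.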

Row | SMILES | IC50 [nM]
1 | Cc1cc(-c2cc(C)c3ncnn3c2)cc2[nH]c(=O)n(C3CCNCC3)c12 [106 F, 7-methyl-5-(8-methyl-[1,2,4]triazolo[1,5-a]pyridin-6-yl)-1-(piperidin-4-yl)-1,3-dihydro-2H-benzo[d]imidazol-2-one] | 50.5
2 | Cc1cc2c(cc1-c1cc(C)c3ncnn3c1)[nH]c(=O)n2[C@@H]1CCCN(CC(C)(C)C)C1 [Example 26, (R)-6-methyl-5-(8-methyl-[1,2,4]triazolo[1,5-a]pyridin-6-yl)-1-(1-neopentylpiperidin-3-yl)-1,3-dihydro-2H-benzo[d]imidazol-2-one] | 235
3 | Cc1cc2c(cc1-c1cc(C)c3ncnn3c1)[nH]c(=O)n2C1CCNCC1 [1 EA, 6-methyl-5-(8-methyl-[1,2,4]triazolo[1,5-a]pyridin-6-yl)-1-(piperidin-4-yl)-1,3-dihydro-2H-benzo[d]imidazol-2-one] | 344
4 | Cc1c(-c2cc3[nH]c(=O)n(C4CCC(N5CCC6(CC5)COC6)CC4)c3cc2C(C)C)cn2ncnc2c1C (single isomer, unassigned) [Example 282, 1-(4-(2-oxa-7-azaspiro[3.5]nonan-7-yl)cyclohexyl)-5-(7,8-dimethyl-[1,2,4]triazolo[1,5-a]pyridin-6-yl)-6-isopropyl-1,3-dihydro-2H-benzo[d]imidazol-2-one] | 10.1
5 | Cc1cc2c(cc1-c1cc(C)c3ncnn3c1)[nH]c(=O)n2[C@@H]1CCCN(CCC(F)(F)F)C1 [Example 29, (R)-6-methyl-5-(8-methyl-[1,2,4]triazolo[1,5-a]pyridin-6-yl)-1-(1-(3,3,3-trifluoropropyl)piperidin-3-yl)-1,3-dihydro-2H-benzo[d]imidazol-2-one] | 211
6 | COc1cc(-c2cc3[nH]c(=O)n(C4CCC(N5CCC(F)(F)CC5)CC4)c3cc2C(C)C)cn2ncnc12 (single isomer, unassigned) [Example 246, 1-(4-(4,4-difluoropiperidin-1-yl)cyclohexyl)-6-isopropyl-5-(8-methoxy-[1,2,4]triazolo[1,5-a]pyridin-6-yl)-1,3-dihydro-2H-benzo[d]imidazol-2-one] | 2.81
7 | Cc1c(-c2cc3[nH]c(=O)n(C4CCC(N5CC(F)C5)CC4)c3cc2C(C)C)cn2ncnc2c1C (stereo not drawn) [Example 280, 5-(7,8-dimethyl-[1,2,4]triazolo[1,5-a]pyridin-6-yl)-1-(4-(3-fluoroazetidin-1-yl)cyclohexyl)-6-isopropyl-1,3-dihydro-2H-benzo[d]imidazol-2-one] | 4.91
8 | COc1c(C)c(-c2cc3[nH]c(=O)n(C4CCC(N5CCC6(CC5)COC6)CC4)c3cc2C(C)C)cn2ncnc12 (single isomer, unassigned) [Example 267, 1-(4-(2-oxa-7-azaspiro[3.5]nonan-7-yl)cyclohexyl)-6-isopropyl-5-(8-methoxy-7-methyl-[1,2,4]triazolo[1,5-a]pyridin-6-yl)-1,3-dihydro-2H-benzo[d]imidazol-2-one] | 2.1
9 | COc1cc(-c2cc3[nH]c(=O)n(C4CCC(N5C6CCC5COC6)CC4)c3cc2C(C)C)cn2ncnc12 (single isomer, unassigned) [Example 252, 1-(4-(3-oxa-8-azabicyclo[3.2.1]octan-8-yl)cyclohexyl)-6-isopropyl-5-(8-methoxy-[1,2,4]triazolo[1,5-a]pyridin-6-yl)-1,3-dihydro-2H-benzo[d]imidazol-2-one] | 40.5
10 | CCN(CC)[C@H]1CC[C@@H](n2c(=O)[nH]c3cc(-c4cc(C)c5ncnn5c4)c(C)cc32)CC1 [Example 20, 1-((1s,4s)-4-(diethylamino)cyclohexyl)-6-methyl-5-(8-methyl-[1,2,4]triazolo[1,5-a]pyridin-6-yl)-1,3-dihydro-2H-benzo[d]imidazol-2-one] | 8.86
11 | Cc1cc(-c2ccc3c(c2)[nH]c(=O)n3C2CCNCC2)cn2ncnc12 [1 EB, 5-(8-methyl-[1,2,4]triazolo[1,5-a]pyridin-6-yl)-1-(piperidin-4-yl)-1,3-dihydro-2H-benzo[d]imidazol-2-one] | 1160
12 | COc1cc(-c2cc3[nH]c(=O)n(C4CCC(N5CCSCC5)CC4)c3cc2C(C)C)cn2ncnc12 (stereo not drawn) [Example 250, 6-isopropyl-5-(8-methoxy-[1,2,4]triazolo[1,5-a]pyridin-6-yl)-1-(4-thiomorpholinocyclohexyl)-1,3-dihydro-2H-benzo[d]imidazol-2-one] | 1.99
13 | Cc1cc2c(cc1-c1cc(C)c3ncnn3c1)[nH]c(=O)n2[C@H]1CC[C@H](N(C)C)CC1 [Example 23, 1-((1r,4r)-4-(dimethylamino)cyclohexyl)-6-methyl-5-(8-methyl-[1,2,4]triazolo[1,5-a]pyridin-6-yl)-1,3-dihydro-2H-benzo[d]imidazol-2-one] | 37.7
14 | COc1c(C)c(-c2cc3[nH]c(=O)n(C4CCC(N5CCC6(CC5)COC6)CC4)c3cc2C(C)C)cn2ncnc12 (single isomer, unassigned) [Example 268, 1-(4-(2-oxa-7-azaspiro[3.5]nonan-7-yl)cyclohexyl)-6-isopropyl-5-(8-methoxy-7-methyl-[1,2,4]triazolo[1,5-a]pyridin-6-yl)-1,3-dihydro-2H-benzo[d]imidazol-2-one] | 15.8
15 | COc1c(C)c(-c2cc3[nH]c(=O)n(C4CCC(N5CC(OC)C5)CC4)c3cc2C(C)C)cn2ncnc12 (stereo not drawn) [Example 266, 6-isopropyl-5-(8-methoxy-7-methyl-[1,2,4]triazolo[1,5-a]pyridin-6-yl)-1-(4-(3-methoxyazetidin-1-yl)cyclohexyl)-1,3-dihydro-2H-benzo[d]imidazol-2-one] | 13.4
16 | CCC(C)N1CCC[C@@H](n2c(=O)[nH]c3cc(-c4cc(C)c5ncnn5c4)c(C)cc32)C1 (stereo partly drawn) [Example 28, 1-((3R)-1-(sec-butyl)piperidin-3-yl)-6-methyl-5-(8-methyl-[1,2,4]triazolo[1,5-a]pyridin-6-yl)-1,3-dihydro-2H-benzo[d]imidazol-2-one] | 27.3
17 | COc1cc(-c2cc3[nH]c(=O)n(C4CCC(N(C)CCC(F)(F)F)CC4)c3cc2C(C)C)cn2ncnc12 (single isomer, unassigned) [Example 249, 6-isopropyl-5-(8-methoxy-[1,2,4]triazolo[1,5-a]pyridin-6-yl)-1-(4-(methyl(3,3,3-trifluoropropyl)amino)cyclohexyl)-1,3-dihydro-2H-benzo[d]imidazol-2-one] | 0.5
18 | CCc1cc2c(cc1-c1cc(OC)c3ncnn3c1)[nH]c(=O)n2[C@@H]1CCCNC1 [119 FB, (R)-6-ethyl-5-(8-methoxy-[1,2,4]triazolo[1,5-a]pyridin-6-yl)-1-(piperidin-3-yl)-1,3-dihydro-2H-benzo[d]imidazol-2-one] | 5.47
19 | COc1c(C)c(-c2cc3[nH]c(=O)n(C4CCC(NCC5(S(C)(=O)=O)CC5)CC4)c3cc2C(C)C)cn2ncnc12 (single isomer, unassigned) [Example 259] | 10.4
20 | COc1cc(-c2cc3[nH]c(=O)n(C4CCC(N5CC6(C5)CS(=O)(=O)C6)CC4)c3cc2C(C)C)cn2ncnc12 (single isomer, unassigned) [Example 245, 1-(4-(2,2-dioxido-2-thia-6-azaspiro[3.3]heptan-6-yl)cyclohexyl)-6-isopropyl-5-(8-methoxy-[1,2,4]triazolo[1,5-a]pyridin-6-yl)-1,3-dihydro-2H-benzo[d]imidazol-2-one] | 5.96
21 | COc1cc(-c2cc3[nH]c(=O)n(C4CCC(N5C[C@@H](F)[C@@H](F)C5)CC4)c3cc2C(C)C)cn2ncnc12 (single isomer, unassigned) [Example 293] | 10.9
22 | COc1c(C)c(-c2cc3[nH]c(=O)n(C4CCC(N5CC6(COC6)C5)CC4)c3cc2C(C)C)cn2ncnc12 (single isomer, unassigned) [Example 270, 1-(4-(2-oxa-6-azaspiro[3.3]heptan-6-yl)cyclohexyl)-6-isopropyl-5-(8-methoxy-7-methyl-[1,2,4]triazolo[1,5-a]pyridin-6-yl)-1,3-dihydro-2H-benzo[d]imidazol-2-one] | 19.3
23 | COCCNC1CCC(n2c(=O)[nH]c3cc(-c4cn5ncnc5c(OC)c4C)c(C(C)C)cc32)CC1 (stereo not drawn) [Example 257] | 6.97
24 | CCN[C@H]1CC[C@@H](n2c(=O)[nH]c3cc(-c4cc(C)c5ncnn5c4)c(C)cc32)CC1 [Example 21, 1-((1s,4s)-4-(ethylamino)cyclohexyl)-6-methyl-5-(8-methyl-[1,2,4]triazolo[1,5-a]pyridin-6-yl)-1,3-dihydro-2H-benzo[d]imidazol-2-one] | 13.3
